Consider `NS(=O)(=O)c1cccc(-c2cc(-c3nc(-c4ccc(Cl)cc4)cc(C(F)(F)F)n3)ccn2)c1` [Example 179, 3-{4-[4-(4-Chloro-phenyl)-6-trifluoromethyl-pyrimidin-2-yl]-pyridin-2-yl}-benzenesulfonamide], for which the melting point (as a rule, the temperature, or range, at which the solid turns liquid) amounted to 182 °C.
As for `CS(=O)(=O)c1cccc(-c2cn(-c3nc(-c4ccc(C(F)(F)F)cc4)cc(C(F)(F)F)n3)cn2)c1` [Example 217, 2-[4-(3-Methanesulfonyl-phenyl)-imidazol-1-yl]-4-trifluoromethyl-6-(4-trifluoromethyl-phenyl)-pyrimidine], the figure is 231 °C.
Molecule `NS(=O)(=O)c1cccc(-c2cn(-c3cc(C(F)(F)F)cc(-c4ccc(C(F)(F)F)cc4)n3)cn2)c1` [Example 283, 3-{1-[4-Trifluoromethyl-6-(4-trifluoromethyl-phenyl)-pyridin-2-yl]-1H-imidazol-4-yl}-benzenesulfonamide] yielded a melting point of more than 266 °C.
The figure for `NS(=O)(=O)c1ccc(-c2cc(-c3nc(-c4ccc(F)c(F)c4)cc(C(F)(F)F)n3)ccn2)s1` [Example 399, 5-{4-[4-(3,4-Difluoro-phenyl)-6-trifluoromethyl-pyrimidin-2-yl]-pyridin-2-yl}-thiophene-2-sulfonic acid amide] is 281 °C.
The figure for `NS(=O)(=O)c1ccc(-c2cc(-c3nc(-c4ccc(C(F)(F)F)cc4F)cc(C(F)(F)F)n3)ccn2)s1` [Example 451, 5-{4-[4-(2-Fluoro-4-trifluoromethyl-phenyl)-6-trifluoromethyl-pyrimidin-2-yl]-pyridin-2-yl}-thiophene-2-sulfonic acid amide] is 228 °C.
`Cc1cc(-c2ccc(C(F)(F)F)cc2)nc(-c2cccc(-c3ccc(S(N)(=O)=O)s3)c2)n1` [Example 172, 5-{3-[4-Methyl-6-(4-trifluoromethyl-phenyl)-pyrimidin-2-yl]-phenyl}-thiophene-2-sulfonic acid amide] registered a melting point of 225 °C.
Take `NS(=O)(=O)c1ccc(-c2cccc(-c3nc(-c4ccc(Cl)cc4)cc(C(F)(F)F)n3)c2)s1` [Example 174, 5-{3-[4-(4-Chloro-phenyl)-6-trifluoromethyl-pyrimidin-2-yl]-phenyl}-thiophene-2-sulfonic acid amide]: the melting point was determined as 226 °C.
The figure for `Cc1cc(-c2ccc(C(F)(F)F)cc2)cc(-c2ccnc(-c3cccc(N)c3)c2)n1` [Example 307, 3-[6-Methyl-4-(4-trifluoromethyl-phenyl)-[2,4′]bipyridinyl-2′-yl]-phenylamine] is 162 °C (dec.).
In turn, `Nc1ccc(-c2noc(-c3nc(-c4ccc(Cl)cc4)cc(C(F)(F)F)n3)n2)cn1` [Example 9, 5-{5-[4-(4-Chloro-phenyl)-6-trifluoromethyl-pyrimidin-2-yl]-[1,2,4]oxadiazol-3-yl}-pyridin-2-ylamine] came in with a melting point of 211 °C.
On to `NS(=O)(=O)c1cccc(-c2cc(-c3cc(C(F)(F)F)cc(-c4ccc(C(F)(F)F)cc4)n3)ccn2)c1` [Example 286, 3-[4-Trifluoromethyl-6-(4-trifluoromethyl-phenyl)-[2,4′]bipyridinyl-2′-yl]-benzenesulfonamide], for which the melting point is 227 °C (dec.).
The figure for `Cc1cc(-c2ccc(C(F)(F)F)cc2)nc(-c2ccnc(-c3cccc(S(=O)(=O)NC(C)(C)C)c3)c2)c1` [Example 297, N-tert-Butyl-3-[4-methyl-6-(4-trifluoromethyl-phenyl)-[2,4′]bipyridinyl-2′-yl]-benzenesulfonamide] is 189 °C.
Regarding `COc1cc(-c2cc(C)nc(-c3ccnc(-c4ccc(S(=O)(=O)NC(C)(C)C)s4)c3)c2)ccc1C(F)(F)F` [Example 339, 5-[4-(3-Methoxy-4-trifluoromethyl-phenyl)-6-methyl-[2,4′]bipyridinyl-2′-yl]-thiophene-2-sulfonic acid tert-butylamide], the melting point was 209 °C (dec.).

Source of the values: patent US8183262B2, “Pyridine derivatives as mGluR2 antagonists” (Hoffmann-La Roche Inc., priority 2007, dated 2012).
